This is an account of results in patent US10391096B2, “Method for treating thrombotic disorders using quercetin-containing compositions” (Quercegen Pharmaceuticals LLC, priority 2011, dated 2019).

One assay concerns D-dimer. Briefly: D-dimer level in blood of hypertensive patients treated with quercetin. The class given is in vivo, humans. The text has this:
As mentioned above, PDI plays a critical role in the initiation of the coagulation cascade. By blocking this critical enzyme activity, quercetin can prevent thrombus formation. The antithrombotic activity of quercetin can be evaluated in humans by measuring D-dimer levels in plasma samples from patients treated with quercetin. D-dimer, a small protein fragment present in the blood, is a fibrin degradation product. The level of D-dimer in the blood increases after a thrombotic event due to its release from blood clots via fibrinolysis. […] Hypertensive patients are prone to thrombotic events.

The conditions of assay [1]: hypertensive patients; cited from earlier work.
The next assay relates to platelet aggregation. Particulars: in vitro; cited from earlier work.

Structures are written as SMILES.

In the case of `O=c1c(O)c(-c2ccc(O)c(O)c2)oc2cc(O)cc(O)c12` [Quercetin, quercetin], the “level of D-dimer in blood” value in the assay with D-dimer is reported as “reduction in the level of D-dimer”. In addition, the blood pressure result in assay [1] is “reduce blood pressure”. Further, the platelet aggregation result in the assay on platelet aggregation was “inhibit platelet aggregation”.
